US9889135B2, “Companion diagnostic for CDK4 inhibitors” (Memorial Sloan-Kettering Cancer Center, priority 2013, dated 2018)

Key:
Type in all cases: cell-based, human
[1] = system: Flag-tagged MDM2 in LS8817 cells; assay: turnover of FLAG-tagged MDM2 and C464A mutant
Text: FIG. 21A-B. Turnover of MDM2 is regulated post-translationally. […] Tubulin was used as a loading control. This experiment was repeated twice with similar results. (B) LS8817 cells transduced with either a FLAG-tagged MDM2 or a FLAG-tagged C464A mutant of MDM2 were selected and the turnover of the FLAG-tagged protein measured by immunoblot after protein synthesis was blocked with cycloheximide for the indicated amount of time. A representative immunoblot is shown and the mean and standard deviation was compiled from two independent experiments.

[2] = system: seven RB-positive patient derived WD/DDLS cell lines; assay: BrdU incorporation in liposarcoma cell lines; settings: asynchronously growing cells, 48 hours
Procedure: FIG. 1A-C. […] Mean percentage of BrdU incorporation or annexin V+/7-AAD− cells was calculated from three or more independent experiments. Error bars represent standard deviation (*p<0.05).
Cell lines were developed from WD/DDLS tumors resected from surgical patients after obtaining informed consent. LS8817 and LS0082 have previously been described using the nomenclature DDLS8817 and WD0082. DNA was extracted from cell lines using standard protocols (QIAGEN DNEasy) and lineage confirmed by copy number array to confirm amplification of segment 12q13-15 (Agilent 244K according to manufacturer's specifications). Analysis of comparative genomic hybridization data was performed using a custom pipeline, which conducts the standard circular binary segmentation from the R/bioconductor DNA copy library and processes all samples with the RAE algorithm (47). […]
shRNA were delivered in the pLKO.1 vector (Sigma) and infected cells selected using puromycin (1 μg/ml); infection with a virus carrying a scramble control ([…]) was used as a control in all experiments utilizing shRNA. […] G0 content was determined by staining with propidium iodine and FACS analyses (49).
Cells were stained with BrdU (20 μM for two hours) or annexin V as previously described (22, 48). […] was determined by staining with propidium iodine and FACS analyses (49).

[3] = system: MDM2 in LS7785-1 and LS7785-10 cells; assay: MDM2 turnover (cycloheximide chase), non-responder cells; settings: non-responder cells LS7785-1 and LS7785-10; 1 μM for 48 hrs, then cycloheximide
Procedure: (§1) The level of MDM2 was measured by immunoblot (center). Tubulin was a loading control. […] This experiment was repeated at least three times on different biologic replicates. […] Tubulin is a loading control. Data compiled from at least three independent experiments is plotted (mean and standard deviation) and a representative immunoblot is shown. […] The graphs are compiled from the data obtained in three independent biologic replicates and representative autoradiographs are shown.

[4] = system: MDM2 in LS0082, LS141 and LS8817 cells; assay: MDM2 turnover (cycloheximide chase), responder cells; settings: 1 μM for 48 hrs, then cycloheximide
Procedure: as §1

[5] = system: catalase in WD/DDLS cell lines; assay: catalase expression by immunoblot; settings: two senescing and two non-senescing cell lines
Text: FIG. 22. Additional immunoblot analysis in responder and non-responder cells. […] Actin is a loading control. This experiment was repeated at least three times for each cell line.

[6] = system: LS8107 and LS7785-1 cells; assay: BrdU incorporation after release into drug-free medium; settings: after seven days of drug treatment
Text: (§2) Mean percentage standard deviation). (*p<0.05). (A) Senescence-associated β-galactosidase and (B) HP1γ staining for senescence associated heterochromatic foci (SAHF) formation was quantitated for three or more independent experiments for each cell line. (*p<0.05). Representative phase contrast micrographs of cells stained for SA-β-gal or immunofluorescence staining for HP1γ in two of the cell lines before (ctrl) and after (PD) drug treatment are shown in the insets of FIGS. 2A and 2B, respectively. (C) BrdU incorporation. Cell lines were treated with PD0332991 for seven days, and released into drug-free medium containing BrdU for the number of days indicated. Error bars represent the standard deviation of the mean calculated from three independent trials.

[7] = system: LS8817 and LS0082 cells; assay: as above; settings: after seven days of drug treatment
Text: as §2

[8] = system: seven WD/DDLS cell lines; assay: cell size, phalloidin staining and flow cytometry; settings: continued treatment, all seven cell lines
Procedure: FIGS. 10A-C. […] Cells were plated at a concentration of 25,000 per well in a 4-well chamber slides (Lab-Tek) and treated for seven days with drug or shRNA as described above and stained for senescence-associated β-galactosidase (Cell Signaling kit #9860). Cell number was quantitated by DAPI staining and β-galactosidase staining quantitated as a proportion of total cells. Senescence associated heterochromatic foci were quantitated after cells were fixed with 4% paraformaldehyde, permeabilized with 0.1% Triton, blocked with 2% FBS, and stained with antibodies against HP1γ (1:5000 dilution, 2MOD-1G6 Millipore). Senescent cells were identified by immunofluorescence after treatment of slides with anti-mouse secondary antibodies and quantitation of focal SAHF as a percent of total cells (Leica Upright Confocal SP5 confocal microscope). Actin was marked using phalloidin staining (1:500, Invitrogen) and cells were counterstained with DAPI. Cell area was measured by with Metamorph software to calculate relative area per cell.

[9] = system: LS8817 cells with enforced MDM2 expression; assay: PD0332991 response with enforced MDM2 expression
Procedure: (A) Immunoblot. […] Tubulin was a loading control. (B) Immunoblot. […] This experiment was carried out with three different pools of transductants multiple times (*p<0.05, **p<0.01). r^2 is calculated as the best-fit correlation.
FIG. 17. […] Cells transduced with an RFP expressing virus were used as a control.
For MDM2 and Rb expression, cells were infected with a lentivirus (pLOC, Open Biosystems) encoding either MDM2, MDM2 V75A, MDM2 I440A, MDM2 C464A, MDM2 Δ254-264, MDM2 L468A, MDM2 Δ464-471, MDM2 P476A, RB, LP-RB, PSM-RB or RFP. Transduced cells were selected for in media containing 3 μg/ml blasticidin and selection was maintained throughout the experiment.

Q: Which results are given for `CC(=O)c1c(C)c2cnc(Nc3ccc(N4CCNCC4)cn3)nc2n(C2CCCC2)c1=O` [PD0332991]?
A: stability of wild type Flag-tagged MDM2 [1]: still turned over; stability of the C464A mutant of MDM2 ([1]; Flag-tagged E3 ligase-deficient mutant): did not affect; incorporation of bromodeoxyuridine (BrdU) [2]: significant reduction; MDM2 stability [3]: largely unaffected; MDM2 stability / protein half-life [4]: markedly reduced; catalase expression [5]: increased; time to return to the cell cycle after the drug was removed [6]: ≤ 48 h; return to the cell cycle after the drug was removed [7]: did not; cell size / cell volume [8]: enlarged; cell cycle exit (phosphorylated Rb, cyclin A, BrdU incorporation) [9]: not affected; p53 levels [9]: still reduced; SA-β-gal accumulation ([9]; seven days): failed to accumulate
